Molecules are shown by their SMILES.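 Five concentrations, 48 hours, 96-well plates. Abbreviation: GI50, concentration required for 50% inhibition of growth.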 Active and inactive are the calls of the source. No stated cut-off is given here; in the data, active = GI50 up to about 1.1 µM and inactive = higher.

Among the test systems are Malme-3M; PC-3; OVCAR-4; UACC-62; HCT-116; CAKI-1; NCI-H522; NCI-H460; 786-0; LXFL 529; MCF7; DMS-273; SNB-19; EKVX; SN12C; Hs-578T; OVCAR-8; HCC 2998; HL-60; MOLT-4.
Holding throughout (experiment): growth of human tumour cells (NCI), 48 h

Turning to `COC(=O)C1=C(C=O)C2C=CC1C2` (stereo unspecified), the GI50 is 56.9 µM (inactive) with Malme-3M; > 100 µM (inactive) with PC-3; > 82.8 µM (inactive) in the experiment with OVCAR-4; > 93.1 µM (inactive) with UACC-62; 58.9 µM (inactive) in the experiment with HCT-116; 44.2 µM (inactive) in the experiment on CAKI-1. Further, the GI50 with NCI-H522 is 44.5 µM (inactive); with NCI-H460 it was > 100 µM (inactive); in the experiment on 786-0 it was > 92.3 µM (inactive); in the experiment on LXFL 529, 21.1 µM (inactive); with MCF7 it was > 100 µM (inactive); in the experiment on DMS-273 it was > 44.2 µM (inactive). In addition, the GI50 with SNB-19 is > 100 µM (inactive); in the experiment on EKVX, 98.4 µM (inactive); in the experiment with SN12C it was > 71.8 µM (inactive); with Hs-578T, > 100 µM (inactive); in the experiment on OVCAR-8, 55 µM (inactive); in the experiment on HCC 2998 it was > 89.1 µM (inactive). The GI50 was 21.3 µM (inactive) in the experiment with HL-60 and 35.6 µM (inactive) in the experiment on MOLT-4.
Regarding `Cc1csc2c1C(=O)c1ccsc1C2=O`, the GI50 in the experiment on Malme-3M is 0.343 µM (active); in the experiment on PC-3, 2.58 µM (inactive); in the experiment with OVCAR-4, 1.89 µM (inactive); in the experiment with UACC-62 it was 1.69 µM (inactive); in the experiment on HCT-116, 2.17 µM (inactive); in the experiment with CAKI-1, 19.6 µM (inactive). Also, the GI50 in the experiment on NCI-H522 is 2.21 µM (inactive); in the experiment with NCI-H460 it was 1.87 µM (inactive); with 786-0 it was 4.63 µM (inactive); in the experiment with LXFL 529 it was 3.42 µM (inactive); with MCF7 it was 1.41 µM (inactive); with DMS-273, 1.94 µM (inactive). Further, the GI50 in the experiment with SNB-19 is 3.37 µM (inactive); with EKVX, 7.98 µM (inactive); in the experiment on SN12C, 2.2 µM (inactive); in the experiment on Hs-578T it was 1.81 µM (inactive); in the experiment with OVCAR-8 it was 2.99 µM (inactive); with HCC 2998 it was 6.11 µM (inactive). Moreover, the GI50 is 2.65 µM (inactive) in the experiment on HL-60 and 4.61 µM (inactive) in the experiment with MOLT-4.
On to `COc1cc(C[C@H]2c3cc(OC)c(OC)cc3CCN2C)c(Oc2cc3c(cc2OC)-c2c(OC)c(OC)cc4c2[C@H](C3)N(C)CC4)cc1OC` [THALICARPINE], for which the GI50 is 9.44 µM (inactive) with Malme-3M; 4.93 µM (inactive) with PC-3; 8.3 µM (inactive) with OVCAR-4; 6.65 µM (inactive) with UACC-62; 4.83 µM (inactive) in the experiment on HCT-116; 6.22 µM (inactive) in the experiment with CAKI-1. Besides, the GI50 is 6.89 µM (inactive) with NCI-H522; 9.16 µM (inactive) in the experiment on NCI-H460; 3.52 µM (inactive) with 786-0; 11 µM (inactive) in the experiment with LXFL 529; 12.2 µM (inactive) in the experiment with MCF7; 10.7 µM (inactive) in the experiment on DMS-273. The GI50 in the experiment with SNB-19 is 16.7 µM (inactive); in the experiment with EKVX it was 12.9 µM (inactive); in the experiment on SN12C it was 12.4 µM (inactive); in the experiment on Hs-578T it was 2.99 µM (inactive); in the experiment on OVCAR-8, 7.43 µM (inactive); in the experiment with HCC 2998, 7.6 µM (inactive). Besides, the GI50 in the experiment on HL-60 was 2.84 µM (inactive); in the experiment with MOLT-4 it was 6.25 µM (inactive).
Regarding `CN(C)/C(F)=P\C(F)(F)F` (stereo unspecified), the GI50 in the experiment on Malme-3M, in the experiment with OVCAR-4, in the experiment with UACC-62, in the experiment on HCT-116, in the experiment on CAKI-1 and with NCI-H522 was > 100 µM (inactive) in each case. Further, the GI50 with NCI-H460, with 786-0, with LXFL 529, in the experiment on DMS-273, in the experiment with SNB-19 and with EKVX was > 100 µM (inactive) in each case. In addition, the GI50 in the experiment with SN12C, with OVCAR-8, with HCC 2998, in the experiment on HL-60 and with MOLT-4 was > 100 µM (inactive) each time.
With `COC(=O)c1c(-c2cc(OC)c(OC)c(OC)c2)oc2ccccc2c1=O`, the GI50 with Malme-3M was > 100 µM (inactive); in the experiment on OVCAR-4, 68.4 µM (inactive); with UACC-62, 68.4 µM (inactive); in the experiment with HCT-116, 48.3 µM (inactive); in the experiment on CAKI-1, 75.3 µM (inactive); with NCI-H522, 94 µM (inactive). Further, the GI50 was 76.7 µM (inactive) in the experiment on NCI-H460; > 100 µM (inactive) in the experiment with 786-0; 63.4 µM (inactive) in the experiment on LXFL 529; 84.9 µM (inactive) with DMS-273; > 100 µM (inactive) in the experiment on SNB-19; > 100 µM (inactive) with EKVX. Moreover, the GI50 with SN12C was > 100 µM (inactive); in the experiment with OVCAR-8 it was > 100 µM (inactive); in the experiment with HCC 2998 it was > 100 µM (inactive); with HL-60, 36.7 µM (inactive); in the experiment on MOLT-4 it was 70.1 µM (inactive).
As for `CCOC(=O)Cc1nc2ccccc2s1`, the GI50 is 16.3 µM (inactive) in the experiment on Malme-3M; > 10 µM (inactive) in the experiment on OVCAR-4; 17.9 µM (inactive) in the experiment on UACC-62; 18.2 µM (inactive) in the experiment with HCT-116; 19.6 µM (inactive) with CAKI-1; 19.6 µM (inactive) in the experiment with NCI-H522. Further, the GI50 with NCI-H460 is 20.4 µM (inactive); in the experiment on 786-0 it was 18.9 µM (inactive); in the experiment with LXFL 529, 16 µM (inactive); in the experiment with DMS-273 it was 22.6 µM (inactive); with SNB-19 it was 44.5 µM (inactive); in the experiment with EKVX, 39.4 µM (inactive). The GI50 with SN12C was 16.8 µM (inactive); with OVCAR-8, 17.5 µM (inactive); with HCC 2998, 88.1 µM (inactive); in the experiment on HL-60, 18.2 µM (inactive); in the experiment on MOLT-4, 25.6 µM (inactive).
In the case of `COc1ccc(O)c(C#N)c1C#N`, the GI50 in the experiment on Malme-3M, in the experiment on OVCAR-4, in the experiment with UACC-62, in the experiment with HCT-116, with CAKI-1 and with NCI-H522 was > 100 µM (inactive) throughout. Also, the GI50 in the experiment with NCI-H460, in the experiment with 786-0, in the experiment with LXFL 529, in the experiment on DMS-273, in the experiment with SNB-19 and in the experiment with EKVX was > 100 µM (inactive) throughout. The GI50 in the experiment with SN12C, in the experiment with OVCAR-8, with HCC 2998, in the experiment on HL-60 and in the experiment on MOLT-4 was > 100 µM (inactive) throughout.
Regarding `COC(=O)C1CC/C(=N/c2ccc(C)cc2C)N1` (stereo unspecified), the GI50 in the experiment on Malme-3M, in the experiment on OVCAR-4, in the experiment on UACC-62, in the experiment on HCT-116, in the experiment with CAKI-1 and in the experiment with NCI-H522 was > 100 µM (inactive) in each case. The GI50 in the experiment on NCI-H460, in the experiment with 786-0, with LXFL 529, with DMS-273, in the experiment with SNB-19 and in the experiment on EKVX was > 100 µM (inactive) in each case. The GI50 in the experiment with SN12C, in the experiment with OVCAR-8, with HCC 2998, with HL-60 and with MOLT-4 was > 100 µM (inactive) in each case.
For `COc1ccc2nc3c(c(NCCCN(C)C)c2c1)CCCC3`, the GI50 is 19.7 µM (inactive) in the experiment with Malme-3M; 4.43 µM (inactive) with OVCAR-4; 16.8 µM (inactive) in the experiment with UACC-62; 4.74 µM (inactive) in the experiment on HCT-116; 11.9 µM (inactive) with CAKI-1; 14.9 µM (inactive) with NCI-H522. Also, the GI50 is 10.3 µM (inactive) in the experiment with NCI-H460; 15.4 µM (inactive) in the experiment on 786-0; 12.7 µM (inactive) in the experiment on LXFL 529; 11.8 µM (inactive) in the experiment on DMS-273; 21.6 µM (inactive) in the experiment on SNB-19; 17.4 µM (inactive) in the experiment on EKVX. The GI50 with SN12C was 17.2 µM (inactive); in the experiment on OVCAR-8, 15 µM (inactive); in the experiment with HCC 2998, 8.81 µM (inactive); in the experiment on HL-60 it was 7.67 µM (inactive); in the experiment with MOLT-4, 3.4 µM (inactive).
As to `CCCCCCCCCCCCCCCC(=O)OCCOCCOCCOCCOCCOC(=O)CCCCCCCCCCCCCCC`, the GI50 in the experiment on Malme-3M, in the experiment with OVCAR-4, in the experiment with UACC-62, with HCT-116, in the experiment with CAKI-1 and with NCI-H522 was > 100 µM (inactive) in each case. The GI50 in the experiment on NCI-H460, in the experiment with 786-0, in the experiment on LXFL 529, in the experiment with DMS-273, with SNB-19 and with EKVX was > 100 µM (inactive) in each case. For the same molecule, the GI50 in the experiment with SN12C, with OVCAR-8, in the experiment on HCC 2998, in the experiment on HL-60 and in the experiment with MOLT-4 was > 100 µM (inactive) in each case.
On to `CC(C)c1cc(OCC(O)CO)cc(C(C)C)c1` (stereo unspecified), for which the GI50 in the experiment on Malme-3M, with OVCAR-4, with UACC-62, with HCT-116, in the experiment on CAKI-1 and in the experiment with NCI-H522 was > 100 µM (inactive) throughout. The GI50 in the experiment on NCI-H460, in the experiment with 786-0, in the experiment on LXFL 529, in the experiment with DMS-273, with SNB-19 and with EKVX was > 100 µM (inactive) in each case. Also, the GI50 with SN12C, in the experiment on OVCAR-8, in the experiment with HCC 2998, with HL-60 and with MOLT-4 was > 100 µM (inactive) throughout.

These data come from ChEMBL document CHEMBL1201862, “PubChem BioAssay data set” (2004).
